Where two headings read alike, the source gives them in different places.
Assays:
Assay type in all cases: cell-based
SMARCA2 [1] = target: T1, SMARCA2 (Homo sapiens, UniProt P51531); assay: SMARCA2 degradation in cell lines, western blot; conditions: for SMARCA2 degradation (western blot, in words): 0.001-10 μm; for SMARCA2 expression at 100 nM (in words): H1792 and H1299 cells
Method: Cell lines with wild-type SMARCA4 (H1975, H1792, H2122, and H441) were treated with DMSO or 0.001, 0.01, 0.1, 1, or 10 μm of ACBI1 (degrader of SMARCA2, SMARCA4 and polybromo-associated BAF complex PBRM1) or Compound 101 and expression levels of SMARCA2 (FIG. 2A) and SMARCA4 (FIG. 2B) were detected by western blot.
(§1) Cell lines with wild-type SMARCA4 (H1792) and mutant SMARCA4 (H1299) were treated for 72 h or 96 h with DMSO or 0.001, 0.01, 0.1, 1, or 10 μm Compound 103 and analyzed by western blot for SMARCA2, SMARCA4, and PBRM1 expression (FIGS. 4A, 4B, and 4C).
(§2) Cell lines with wild-type SMARCA4 (H1792) and mutant SMARCA4 (H1299) were treated for 72 h or 96 h with DMSO or 0.001, 0.01, 0.1, 1, or 10 μm Compound 102 and analyzed by western blot for SMARCA2, SMARCA4, and PBRM1 expression (FIGS. 5A, 5B, and 5C).
(§3) Cell lines with wild-type SMARCA4 (H1975) were treated with DMSO or 0.001, 0.01, 0.1, 1, or 10 μm of Compounds 104, 105, 106, 107, or 108 and analyzed by western blot for SMARCA2, SMARCA4, and PBRM1 expression (FIGS. 6A and 6B).

SMARCA4 [2] = target: SMARCA4 (Homo sapiens, UniProt P51532); assay: SMARCA4 degradation in cell lines, western blot; conditions: for DC50: read-out: SMARCA4 DC50
wild-type SMARCA4 cells = assay: Colony assay / cell proliferation, wild-type SMARCA4 cell lines as a group; conditions: HCC44, H2122, H1792, H1975; 0.001-10 μm
Method: (§4) Cell lines with wild-type SMARCA4 (HCC44, H2122, H1792 and H1975) and cell lines with mutant SMARCA4 (H1693, HCC515, H322, and H1299) were seeded in appropriate dilutions to form colonies in about 1-3 weeks. Cells were treated with ACBI1 or Compound 101 at concentrations of 0.001, 0.01, 0.1, 1, and 10 μm. Colonies were fixed with glutaraldehyde (6% v/v), stained with crystal violet (0.5% w/v) and the percent area of colonies was determined (FIGS. 3A and 3B). In cell lines with wild-type SMARCA4, inhibition of colony growth was more pronounced after treatment with ACBI1 than Compound 101 (FIG. 3A).

mutant SMARCA4 cells = assay: Colony assay / cell proliferation, mutant SMARCA4 cell lines as a group; conditions: H1693, HCC515, H322, H1299; 0.001-10 μm
Method: as §4

SMARCA2 [3] = target: T1, SMARCA2; assay: SMARCA2 degradation in cell lines, western blot
SMARCA4 [4] = assay: SMARCA4 degradation in cell lines, western blot; conditions: H1792 and H1299 cells, 72 h or 96 h, 0.001-10 μm
PBRM1 = target: T2, PBRM1 (Homo sapiens, UniProt Q86U86); assay: PBRM1 expression in cell lines, western blot; conditions: H1792 and H1299 cells, 72 h or 96 h, 0.001-10 μm
T2 construct: heterobifunctional compounds, which recruit endogenous proteins to a ubiquitin ligase for degradation; endogenous in cells; host or cells: H1792, H1299, H1975
Method: as §1, §2, §3

[5] = H441, wild-type SMARCA4 cell line
[6] = H1792, wild-type SMARCA4 cell line
[7] = H2122, wild-type SMARCA4 cell line
[8] = H1975, wild-type SMARCA4 cell line
[9] = H1792 (wild-type SMARCA4) and H1299 (mutant SMARCA4) cells, 72 h or 96 h

Chain of SMARCA4 (Homo sapiens, UniProt P51532) (P51532 whole entry): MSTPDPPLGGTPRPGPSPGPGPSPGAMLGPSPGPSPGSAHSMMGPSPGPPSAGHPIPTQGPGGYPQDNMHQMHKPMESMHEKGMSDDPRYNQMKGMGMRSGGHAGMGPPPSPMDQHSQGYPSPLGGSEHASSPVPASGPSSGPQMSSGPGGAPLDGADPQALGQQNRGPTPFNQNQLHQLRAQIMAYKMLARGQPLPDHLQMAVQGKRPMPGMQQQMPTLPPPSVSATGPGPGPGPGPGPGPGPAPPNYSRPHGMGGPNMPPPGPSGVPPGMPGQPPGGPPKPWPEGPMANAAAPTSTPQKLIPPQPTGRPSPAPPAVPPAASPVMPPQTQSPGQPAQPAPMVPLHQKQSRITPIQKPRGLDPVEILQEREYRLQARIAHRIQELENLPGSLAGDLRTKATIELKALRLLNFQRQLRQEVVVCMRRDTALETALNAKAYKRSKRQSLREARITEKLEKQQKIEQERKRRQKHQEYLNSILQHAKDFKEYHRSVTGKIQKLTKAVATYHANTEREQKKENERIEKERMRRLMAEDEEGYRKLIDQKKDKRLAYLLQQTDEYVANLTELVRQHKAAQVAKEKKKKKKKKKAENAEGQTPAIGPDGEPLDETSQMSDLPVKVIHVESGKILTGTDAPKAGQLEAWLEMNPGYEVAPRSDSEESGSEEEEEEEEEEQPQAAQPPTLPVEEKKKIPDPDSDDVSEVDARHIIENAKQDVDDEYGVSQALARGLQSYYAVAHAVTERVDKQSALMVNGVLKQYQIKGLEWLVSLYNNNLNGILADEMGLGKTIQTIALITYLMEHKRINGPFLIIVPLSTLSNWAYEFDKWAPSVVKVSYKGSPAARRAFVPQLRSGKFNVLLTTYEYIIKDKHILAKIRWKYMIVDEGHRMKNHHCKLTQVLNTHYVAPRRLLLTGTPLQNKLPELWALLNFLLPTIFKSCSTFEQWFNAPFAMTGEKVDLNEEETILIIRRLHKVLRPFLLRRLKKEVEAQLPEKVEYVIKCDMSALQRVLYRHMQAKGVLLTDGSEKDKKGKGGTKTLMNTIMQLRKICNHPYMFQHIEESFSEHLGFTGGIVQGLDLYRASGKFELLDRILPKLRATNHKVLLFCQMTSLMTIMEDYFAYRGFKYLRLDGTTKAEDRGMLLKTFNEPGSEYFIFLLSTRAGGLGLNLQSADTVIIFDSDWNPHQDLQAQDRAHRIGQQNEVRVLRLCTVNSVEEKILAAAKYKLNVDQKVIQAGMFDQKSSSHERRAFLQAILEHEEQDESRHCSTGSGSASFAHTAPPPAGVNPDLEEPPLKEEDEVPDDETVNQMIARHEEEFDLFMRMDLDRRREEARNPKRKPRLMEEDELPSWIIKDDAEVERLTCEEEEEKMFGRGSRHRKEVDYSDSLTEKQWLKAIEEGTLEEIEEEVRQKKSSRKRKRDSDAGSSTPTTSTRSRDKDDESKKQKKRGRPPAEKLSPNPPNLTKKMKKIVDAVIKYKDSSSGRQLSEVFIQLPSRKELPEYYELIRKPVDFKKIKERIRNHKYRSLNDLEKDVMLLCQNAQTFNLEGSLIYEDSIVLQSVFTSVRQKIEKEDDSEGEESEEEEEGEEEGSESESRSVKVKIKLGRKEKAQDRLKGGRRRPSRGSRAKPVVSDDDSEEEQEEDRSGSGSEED
T1 sequence (P51531 whole entry): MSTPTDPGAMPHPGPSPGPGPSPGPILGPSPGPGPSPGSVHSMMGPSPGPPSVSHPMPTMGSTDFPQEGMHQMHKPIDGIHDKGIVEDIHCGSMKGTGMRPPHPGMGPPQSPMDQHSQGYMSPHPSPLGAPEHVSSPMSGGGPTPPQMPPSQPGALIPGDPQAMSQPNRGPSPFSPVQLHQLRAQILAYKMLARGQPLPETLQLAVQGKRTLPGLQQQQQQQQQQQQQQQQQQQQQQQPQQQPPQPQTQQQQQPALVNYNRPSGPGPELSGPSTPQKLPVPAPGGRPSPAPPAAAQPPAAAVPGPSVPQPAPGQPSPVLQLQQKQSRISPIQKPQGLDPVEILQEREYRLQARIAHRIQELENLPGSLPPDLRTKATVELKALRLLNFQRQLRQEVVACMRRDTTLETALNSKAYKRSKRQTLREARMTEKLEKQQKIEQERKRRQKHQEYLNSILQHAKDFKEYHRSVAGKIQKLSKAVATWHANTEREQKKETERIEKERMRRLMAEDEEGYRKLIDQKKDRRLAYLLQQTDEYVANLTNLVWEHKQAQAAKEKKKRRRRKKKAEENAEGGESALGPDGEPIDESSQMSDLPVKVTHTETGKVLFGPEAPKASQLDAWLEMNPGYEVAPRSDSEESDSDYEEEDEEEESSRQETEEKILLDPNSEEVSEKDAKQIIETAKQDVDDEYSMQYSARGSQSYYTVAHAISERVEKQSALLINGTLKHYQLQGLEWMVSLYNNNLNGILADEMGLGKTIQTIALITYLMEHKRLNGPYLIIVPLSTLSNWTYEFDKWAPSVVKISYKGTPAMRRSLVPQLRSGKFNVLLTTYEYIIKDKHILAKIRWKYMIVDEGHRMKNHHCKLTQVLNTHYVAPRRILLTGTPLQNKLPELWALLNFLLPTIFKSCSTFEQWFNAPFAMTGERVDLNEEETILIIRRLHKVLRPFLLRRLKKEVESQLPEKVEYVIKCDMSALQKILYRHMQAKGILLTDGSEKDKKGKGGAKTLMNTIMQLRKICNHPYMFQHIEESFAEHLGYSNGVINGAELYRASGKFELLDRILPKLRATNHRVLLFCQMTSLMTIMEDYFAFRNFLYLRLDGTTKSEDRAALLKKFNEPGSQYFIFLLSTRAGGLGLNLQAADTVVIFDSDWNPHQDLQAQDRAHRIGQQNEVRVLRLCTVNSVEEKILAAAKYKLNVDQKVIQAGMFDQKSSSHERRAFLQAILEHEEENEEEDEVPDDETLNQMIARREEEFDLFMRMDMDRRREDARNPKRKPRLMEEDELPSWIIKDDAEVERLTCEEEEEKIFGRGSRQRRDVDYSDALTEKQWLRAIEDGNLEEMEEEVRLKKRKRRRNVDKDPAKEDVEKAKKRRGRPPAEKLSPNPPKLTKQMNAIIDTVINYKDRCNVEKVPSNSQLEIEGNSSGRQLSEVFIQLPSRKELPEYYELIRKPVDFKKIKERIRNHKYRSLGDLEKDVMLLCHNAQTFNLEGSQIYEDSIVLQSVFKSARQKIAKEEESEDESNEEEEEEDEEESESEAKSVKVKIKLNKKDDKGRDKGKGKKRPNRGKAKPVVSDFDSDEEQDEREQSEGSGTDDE
T2 sequence (Q86U86 whole entry): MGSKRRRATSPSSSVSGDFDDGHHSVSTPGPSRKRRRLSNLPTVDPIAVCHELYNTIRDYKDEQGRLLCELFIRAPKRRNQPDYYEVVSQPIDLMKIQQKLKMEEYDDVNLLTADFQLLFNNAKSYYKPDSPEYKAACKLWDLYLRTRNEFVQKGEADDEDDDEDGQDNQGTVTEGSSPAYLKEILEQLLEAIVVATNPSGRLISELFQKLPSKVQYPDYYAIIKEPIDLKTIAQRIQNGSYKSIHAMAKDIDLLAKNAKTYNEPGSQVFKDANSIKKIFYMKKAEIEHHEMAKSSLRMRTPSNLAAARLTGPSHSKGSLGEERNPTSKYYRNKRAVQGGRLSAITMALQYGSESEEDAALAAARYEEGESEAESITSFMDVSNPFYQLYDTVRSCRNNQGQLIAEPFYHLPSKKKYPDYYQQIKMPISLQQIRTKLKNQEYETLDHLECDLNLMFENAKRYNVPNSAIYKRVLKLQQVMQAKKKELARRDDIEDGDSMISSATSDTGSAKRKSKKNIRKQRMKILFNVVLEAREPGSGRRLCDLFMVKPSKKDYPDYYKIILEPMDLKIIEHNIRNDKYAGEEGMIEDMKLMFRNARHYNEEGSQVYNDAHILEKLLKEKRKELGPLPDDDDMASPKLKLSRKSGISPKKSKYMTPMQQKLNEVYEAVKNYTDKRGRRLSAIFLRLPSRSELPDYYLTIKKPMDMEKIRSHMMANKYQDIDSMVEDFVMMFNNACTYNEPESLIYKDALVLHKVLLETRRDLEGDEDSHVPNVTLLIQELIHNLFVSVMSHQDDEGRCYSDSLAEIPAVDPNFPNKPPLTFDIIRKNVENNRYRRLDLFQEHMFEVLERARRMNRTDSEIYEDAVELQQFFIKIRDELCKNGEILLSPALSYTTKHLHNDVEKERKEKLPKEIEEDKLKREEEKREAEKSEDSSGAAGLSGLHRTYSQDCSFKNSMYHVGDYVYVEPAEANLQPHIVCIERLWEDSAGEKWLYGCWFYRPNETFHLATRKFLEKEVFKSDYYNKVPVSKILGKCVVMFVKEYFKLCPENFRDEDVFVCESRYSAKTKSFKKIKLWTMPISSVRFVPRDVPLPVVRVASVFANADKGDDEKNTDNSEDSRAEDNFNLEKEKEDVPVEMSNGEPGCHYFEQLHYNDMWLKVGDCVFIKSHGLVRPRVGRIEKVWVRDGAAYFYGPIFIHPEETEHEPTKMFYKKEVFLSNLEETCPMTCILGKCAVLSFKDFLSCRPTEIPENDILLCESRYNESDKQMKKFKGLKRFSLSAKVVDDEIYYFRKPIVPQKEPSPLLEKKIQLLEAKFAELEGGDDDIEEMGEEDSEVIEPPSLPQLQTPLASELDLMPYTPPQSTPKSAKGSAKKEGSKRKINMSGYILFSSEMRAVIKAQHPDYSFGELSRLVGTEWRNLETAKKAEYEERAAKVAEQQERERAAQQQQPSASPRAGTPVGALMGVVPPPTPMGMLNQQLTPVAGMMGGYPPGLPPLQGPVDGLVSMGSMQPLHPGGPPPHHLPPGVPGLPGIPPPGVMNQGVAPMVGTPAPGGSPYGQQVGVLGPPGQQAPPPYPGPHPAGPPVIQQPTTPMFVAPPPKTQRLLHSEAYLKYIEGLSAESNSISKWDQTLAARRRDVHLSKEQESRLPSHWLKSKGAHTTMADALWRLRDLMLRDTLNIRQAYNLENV

For `Cc1ncsc1-c1ccc(CNC(=O)[C@@H]2C[C@@H](O)CN2C(=O)[C@@H](NC(=O)C2(F)CC2)C(C)(C)C)c(OCCOc2ccc(CN3CCN(c4cc(-c5ccccc5O)nnc4N)CC3)cc2)c1` [ACBI1, reference compound], the DC50 (SMARCA2 [1]; [5]) was 0.011 µM, the DC50 (SMARCA2 [1]; [6]) was 0.007 µM and the “SMARCA2 degradation (western blot, in words)” value (shortened to “SMARCA2 degradation”) (SMARCA2 [1]; H1975, H1792, H2122, H441, increasing concentrations) was “degraded SMARCA2 and SMARCA4”. The DC50 (SMARCA2 [1]; H1975, wild-type SMARCA4 cell line, concentration at which 50% of the target protein is degraded) was 0.051 µM, the DC50 (SMARCA2 [1]; [7]) was 0.013 µM and the “SMARCA4 Dmax (%)” value (SMARCA4 [2]; [5]) was 99%. For the same compound, the DC50 (SMARCA4 [2]; [5]) was 0.036 µM, the “SMARCA4 Dmax (%)” value (SMARCA4 [2]; [6]) was 98% and the DC50 (SMARCA4 [2]; [6]) was 0.018 µM. For the same compound, the “SMARCA4 Dmax, span over cell lines” value (SMARCA4 [2]; H1975, H1792, H2122, H441 (Table 3)) was 97-99%, the “SMARCA4 degradation (western blot, in words)” value (SMARCA4 [2]; H1975, H1792, H2122, H441, 0.001-10 μm, increasing concentrations) was “degraded SMARCA2 and SMARCA4” and the “SMARCA4 Dmax (%)” value (SMARCA4 [2]; [8]) was 98%. The DC50 (SMARCA4 [2]; [8]) was 0.098 µM, the “SMARCA4 Dmax (%)” value (SMARCA4 [2]; [7]) was 97% and the DC50 (SMARCA4 [2]; [7]) was 0.032 µM. For the same compound, the “colony growth / proliferation of wild-type SMARCA4 cells (in words)” value (wild-type SMARCA4 cells) was “inhibited wild-type and mutant SMARCA4 cells”, the “colony growth / proliferation of mutant SMARCA4 cells (in words)” value (mutant SMARCA4 cells) was “inhibited wild-type and mutant SMARCA4 cells” and the “SMARCA2 Dmax (%)” value (SMARCA2 [3]; [5]) was 97%. For the same compound, the “SMARCA2 Dmax (%)” value (SMARCA2 [3]; [6]) was 97%, the “SMARCA2 Dmax (%)” value (SMARCA2 [3]; H1975, wild-type SMARCA4 cell line, maximum degradation as percentage of DMSO control) was 98% and the “SMARCA2 Dmax (%)” value (SMARCA2 [3]; [7]) was 95%.

For `Nc1nnc(-c2ccccc2O)cc1N1CCN(Cc2ccc(N3CCN(CCOc4cccc5c4C(=O)N(C4CCC(=O)NC4=O)C5=O)CC3)c(F)c2)CC1` (centres unmarked) [Compound 102], the “SMARCA2 degradation” value (SMARCA2 [1]; [9]) was “efficiently degraded SMARCA2”, the “SMARCA2 expression at 100 nM (in words)” value (SMARCA2 [1]) was “significantly inhibited SMARCA2 expression” and the “SMARCA4 expression (western blot, in words)” value (SMARCA4 [4]) was “reduced expression of SMARCA4”. For the same compound, the “PBRM1 expression (western blot, in words)” value (PBRM1) was “did not have a significant effect on the expression of PBRM1”.

`Nc1nnc(-c2ccccc2O)cc1N1CCN(Cc2ccc(N3CCC(CN4CCN(c5ccc6c(c5)C(=O)N(C5CCC(=O)NC5=O)C6=O)CC4)CC3)c(F)c2)CC1` (centres unmarked) [Compound 103] was tested, and the “SMARCA2 degradation” value (SMARCA2 [1]; [9]) was “efficiently degraded SMARCA2”, the “SMARCA2 expression at 100 nM (in words)” value (SMARCA2 [1]) was “significantly inhibited SMARCA2 expression” and the “SMARCA4 expression (western blot, in words)” value (SMARCA4 [4]) was “reduced expression of SMARCA4 in H1792 cells”. The “PBRM1 expression (western blot, in words)” value (PBRM1) was “did not have a significant effect on the expression of PBRM1”.
